Data published in PMC4291223, “Inhibitors of CLK Protein Kinases Suppress Cell Growth and Induce Apoptosis by Modulating Pre-mRNA Splicing” (PLoS ONE, 2015).

Tests used:
SRPK1 = molecular target: T1, SRPK1 (Homo sapiens, UniProt Q96SB4); assay: In vitro kinase assay (ADP-Glo), SRPK1; assay type: biochemical; settings: 5 µM ATP
T1 construct: Full-length human recombinant SRPK1 with a FLAG tag linked to the N-terminus (FLAG-hSRPK1); FLAG (N); made in house; host or cells: Sf9 cells (baculovirus, Bac-to-Bac)
Description: Full-length human recombinant SRPK1 with a FLAG tag linked to the N-terminus (FLAG-hSRPK1) was prepared using a baculovirus expression system. The recombinant baculovirus used to express FLAG-hSRPK1 was constructed according to the protocol provided with the Bac-to-Bac Baculovirus Expression System (Invitrogen, Carlsbad, CA). Sf9 cells were infected with the amplified recombinant baculovirus, cultured at 27°C for 3 days, harvested, and stored at −80°C. The frozen cells were suspended in lysis buffer [50 mM Tris-HCl pH 7.5, 150 mM NaCl, 10% (w/v) glycerol, 1 mM DTT, and complete protease inhibitor cocktail (Roche, Basel, Switzerland)], sonicated for 1 min, and centrifuged at 15,000 × g for 30 min. The soluble fraction was applied to an anti-FLAG M2 affinity gel (Sigma-Aldrich, St. Louis, MO), and FLAG-hSRPK1 was eluted with elution buffer [50 mM Tris-HCl pH 7.5, 10% (w/v) glycerol, 1 mM DTT, and 0.1 mg/mL FLAG peptide]. FLAG-hSRPK1 was further purified by anion exchange chromatography (MonoQ 5/50 GL; GE Healthcare, Piscataway, NJ) and gel filtration chromatography (HiLoad 26/60 Superdex 200 pg; GE Healthcare). Protein concentration was measured using BCA protein assay reagents (Thermo Scientific, Pittsburgh, PA). CLK1 and CLK2 were purchased from Life Technologies (Carlsbad, CA) and SRPK2 and SRPK3 were obtained from Millipore (Billerica, MA).
The ATP concentration for each assay was adjusted to the Km for each kinase. […] ADP was detected using a kinase detection reagent (Promega). The kinase activity of CLK2 was measured using the LANCE® Ultra assay (Perkin-Elmer, Waltham, MA) with ADP-Glo assay buffer. […] The enzyme reactions were terminated by adding 30 mM EDTA, and phosphorylated ULight-MBP peptides were detected using a europium-labeled anti-phospho-MBP antibody diluted with detection buffer (Perkin-Elmer). The plates were read using an EnVision 2102 multilabel reader (Perkin-Elmer). We defined the absorbance of the reaction without enzyme as 100% inhibitory activity and that of the complete reaction mixture as 0% inhibitory activity. […]

Aurora kinase A = Aurora kinase A (Homo sapiens, UniProt O14965); assay: Kinase panel assay (Z'-LYTE, SelectScreen), Aurora kinase A; assay type: biochemical; settings: 1 μM compound, 100 μM ATP; among kinases inhibited by more than 50%
Description: Kinase panel assays were performed using the FRET-based Z’- LYTE enzymatic kinase assay system (Life Technologies, Carlsbad, CA), which was carried out using the SelectScreen Kinase Profiling Service (Life Technologies). The standard reaction contained 2 μM peptide substrate, 100 μM ATP, 50 mM HEPES (pH 7.5), 0.01% Brij-35, 10 mM MgCl2, 1 mM EGTA, and each kinase. Cpd-1, Cpd-2, and Cpd-3 at two point concentration (100 and 1000 nM) with duplicate data points (n = 2) were assayed following the detailed procedures outlined in the SelectScreen. The full assay protocol and conditions can be obtained at www.lifetechnologies.com. Percent inhibition represents a ratio of phosphorylated product formed in the presence of the compound compared with phosphorylated product formed in reactions containing 1% DMSO. Inhibition data indicates the mean value of kinase inhibition from duplicate data.

[1] = system: mRNA isoforms harboring PTCs in MDA-MB-468 cells; assay: Fluorescence pulse-chase RNA labeling assay; assay type: cell-based, human; settings: 50 μM Cpd-1 or 5 μM Cpd-2
Description: MDA-MB-468 cells (5 × 10^5) were seeded into 6-well plates and incubated overnight. The cells were treated with each compound for 6 h and incubated with culture medium containing 5-EU (Invitrogen) to label cellular RNA. After incubation for 1 h, the medium was replaced with EU-free fresh medium and the cells were cultured for a further 24 h to allow degradation of the labeled RNA (chase). Cells were harvested before and after the chase and EU-labeled RNA was isolated using a Click-iT Nascent RNA Capture Kit (Invitrogen) according to the manufacturer’s instructions. The isolated RNA was analyzed by quantitative RT-PCR to measure the amount of each mRNA splice isoform.

SRPK3 = molecular target: T2, SRPK3 (Homo sapiens, UniProt Q9UPE1); assay: In vitro kinase assay (ADP-Glo), SRPK3; assay type: biochemical; settings: 5 µM ATP
T2 construct: purchased Millipore
Description: The ATP concentration for each assay was adjusted to the Km for each kinase. Kinase assays for SRPK1–3 and CLK1 were performed using the ADP-Glo™ assay (Promega, Madison, WI). The kinase buffer contained 25 mM HEPES (pH 7.5), 10 mM magnesium acetate, 1 mM DTT, 0.01% BSA, and 0.01% Tween-20. The reaction mixtures contained 50 ng/mL SRPK1, 100 ng/mL SRPK2 or SRPK3, or 300 ng/mL CLK1 and 3 μM substrate peptide [GRSRSRSRSRSRSRSR] (Thermo Scientific). After incubating the enzyme, peptide, and compounds for 10 min, kinase reactions were initiated by adding ATP to a final concentration of 5 µM, followed by incubation for 30 min (15 min for SRPK1). The kinase reactions were terminated by adding ADP-Glo™ reagent (Promega). ADP was detected using a kinase detection reagent (Promega). The kinase activity of CLK2 was measured using the LANCE® Ultra assay (Perkin-Elmer, Waltham, MA) with ADP-Glo assay buffer. […] The enzyme reactions were terminated by adding 30 mM EDTA, and phosphorylated ULight-MBP peptides were detected using a europium-labeled anti-phospho-MBP antibody diluted with detection buffer (Perkin-Elmer). The plates were read using an EnVision 2102 multilabel reader (Perkin-Elmer). We defined the absorbance of the reaction without enzyme as 100% inhibitory activity and that of the complete reaction mixture as 0% inhibitory activity. […]

[2] = system: phospho-SR proteins in MDA-MB-468 cells; assay: Immunoblot of phospho-SR proteins; assay type: cell-based, human; settings: MDA-MB-468, 3 h, anti-pan-phospho-SR antibody
Description: Cells were lysed in radioimmunoprecipitation assay buffer containing 50 mM Tris-HCl (pH 7.6), 150 mM NaCl, 1% Triton X-100, and protease inhibitor cocktail tablets (Roche). After removal of the insoluble matter by centrifugation at 15,000 rpm for 15 min, the protein concentrations of the supernatants were determined using a BCA Protein Assay Kit (Pierce Biotechnology, Rockford, IL). The lysates were directly combined with one-quarter volume of 5× sample buffer [25 mmol/L Tris-HCl pH 6.8, 10% glycerol, 0.8% SDS, and 0.004% bromophenol blue] and boiled at 100°C for 5 min. The samples were subjected to 5–20% gradient SDS-polyacrylamide gel electrophoresis, and the separated proteins were electrophoretically transferred to polyvinylidene difluoride membranes using an I-blot System (Invitrogen). The membranes were incubated with primary antibodies and visualized using enhanced chemiluminescence reagents (GE Healthcare). The primary antibodies were as follows: anti-phospho-SR (1H4), anti-SR (Invitrogen), anti-EGFR, anti-EIF3D, anti-GAPDH (Santa Cruz Biotechnology, Santa Cruz, CA), anti-S6K and anti-PARP (Cell Signaling Technology, Danvers, MA).

T1 sequence (Q96SB4 whole entry): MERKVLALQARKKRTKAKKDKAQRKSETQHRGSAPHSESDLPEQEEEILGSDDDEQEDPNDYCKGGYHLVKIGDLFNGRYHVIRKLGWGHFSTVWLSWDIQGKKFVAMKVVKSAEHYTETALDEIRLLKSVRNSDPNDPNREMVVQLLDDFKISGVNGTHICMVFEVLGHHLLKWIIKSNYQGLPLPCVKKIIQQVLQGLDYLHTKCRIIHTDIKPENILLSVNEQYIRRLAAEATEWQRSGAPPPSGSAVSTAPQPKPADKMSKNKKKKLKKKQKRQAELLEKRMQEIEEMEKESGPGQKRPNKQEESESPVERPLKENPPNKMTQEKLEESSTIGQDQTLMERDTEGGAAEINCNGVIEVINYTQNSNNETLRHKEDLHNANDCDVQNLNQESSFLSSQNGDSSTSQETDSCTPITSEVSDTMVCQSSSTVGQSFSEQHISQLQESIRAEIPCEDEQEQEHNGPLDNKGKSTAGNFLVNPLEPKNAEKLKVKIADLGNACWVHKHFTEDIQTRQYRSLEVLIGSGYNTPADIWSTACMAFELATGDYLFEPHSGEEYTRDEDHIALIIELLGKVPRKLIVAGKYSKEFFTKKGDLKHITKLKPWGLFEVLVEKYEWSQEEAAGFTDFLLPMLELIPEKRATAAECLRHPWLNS
T2 sequence (Q9UPE1 whole entry): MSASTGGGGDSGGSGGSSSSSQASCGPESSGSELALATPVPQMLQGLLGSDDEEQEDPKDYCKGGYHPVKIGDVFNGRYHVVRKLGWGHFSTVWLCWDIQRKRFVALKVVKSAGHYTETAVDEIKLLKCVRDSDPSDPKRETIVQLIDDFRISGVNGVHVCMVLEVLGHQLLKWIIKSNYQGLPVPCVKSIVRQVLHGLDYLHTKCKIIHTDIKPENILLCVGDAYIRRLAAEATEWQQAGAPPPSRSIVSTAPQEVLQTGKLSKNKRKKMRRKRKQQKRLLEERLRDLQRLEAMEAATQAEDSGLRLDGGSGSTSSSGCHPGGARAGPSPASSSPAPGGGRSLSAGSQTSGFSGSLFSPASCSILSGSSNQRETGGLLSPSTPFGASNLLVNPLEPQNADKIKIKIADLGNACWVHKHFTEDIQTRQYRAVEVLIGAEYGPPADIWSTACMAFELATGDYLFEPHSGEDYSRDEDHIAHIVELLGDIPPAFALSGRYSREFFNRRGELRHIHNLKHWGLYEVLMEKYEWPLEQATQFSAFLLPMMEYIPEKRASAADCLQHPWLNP
Aurora kinase A, sequence (O14965 whole entry): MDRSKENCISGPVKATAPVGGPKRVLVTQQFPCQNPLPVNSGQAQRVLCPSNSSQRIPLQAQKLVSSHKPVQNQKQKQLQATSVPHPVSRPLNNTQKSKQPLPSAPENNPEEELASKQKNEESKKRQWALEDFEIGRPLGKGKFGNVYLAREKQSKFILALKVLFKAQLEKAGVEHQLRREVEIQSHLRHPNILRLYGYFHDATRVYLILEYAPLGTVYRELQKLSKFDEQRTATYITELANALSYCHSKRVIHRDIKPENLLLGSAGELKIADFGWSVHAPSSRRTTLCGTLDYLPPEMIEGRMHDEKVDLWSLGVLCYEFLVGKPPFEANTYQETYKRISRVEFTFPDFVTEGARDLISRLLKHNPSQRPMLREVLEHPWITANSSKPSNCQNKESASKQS

| IC50 (SRPK1) | inhibition of Aurora kinase A in kinase panel (Aurora kinase A) | IC50 (SRPK3) | SMILES | amounts of S6K mRNA isoforms harboring PTCs (exons 6–8, exons 6–10) versus canonical S6K exons 6–7 after 24 h chase [1] | Phospho-SRSF1 (SF2) level [2] | phosphorylation levels of SRSF4 (SRp75) [2] |
| --- | --- | --- | --- | --- | --- | --- |
| 61 nM | moderately inhibited |  | CC(C)(CCc1nnn[nH]1)c1ccc(C(=O)Nc2cn3cc(C(F)(F)F)ccc3n2)cc1 [Cpd-1, 4-(2-methyl-4-(1H-tetrazol-5-yl)butan-2-yl)-N-(6-(trifluoromethyl)imidazo[1,2-a]pyridin-2-yl)benzamide] | significantly lower |  |  |
| 200 nM |  | 230 nM | CC(C)(C)c1ccc(C(=O)Nc2cn3cc(-c4cn[nH]c4)ccc3n2)cn1 [Cpd-2, 6-tert-butyl-N-(6-(1H-pyrazol-4-yl)imidazo[1,2-a]pyridin-2-yl)nicotinamide] | significantly lower | decreased | at lower concentrations than Cpd-1 |
| 130 nM | moderately inhibited | 260 nM | CC(C)(CO)c1ccc(C(=O)Nc2cn3cc(-c4cn[nH]c4)ccc3n2)cc1 [Cpd-3, 4-(1-hydroxy-2-methylpropan-2-yl)-N-(6-(1H-pyrazol-4-yl)imidazo[1,2-a]pyridin-2-yl)benzamide] |  | decreased | at lower concentrations than Cpd-1 |
